Data published in patent publication US4550186A, “Binuclear copper (II) carboxylates formed from amine-carboxyboranes” (Duke University, priority 1983, dated 1985).

How the values were obtained:
[1] = tested on: deoxyribonucleic acid synthesis of Ehrlich ascites cells; assay: In vivo thymidine incorporation into deoxyribonucleic acid; set-up: species or system mouse
Experimental: (§1) CF1 male mice (~30 g) were implanted with 2×10^6 Ehrlich ascites tumor cells, intraperitoneally on Day 0. Compound I was suspended by homogenation in 0.05% polysorbate.80-water and administered intraperitoneally at 10 and 20 mg/kg for 9 days to determine its effectiveness for inhibition of tumor growth. Mice were sacrificed on Day 10, and the ascites fluid was collected from the peritoneal cavity. The volume and ascrit (packed cell volume) were determined for each animal and the percent inhibition of tumor growth was calculated. For the metabolic studies, mice were treated on Days 8 and 9 with 10 mg/kg of Compound I, intraperitoneally. The animal was sacrificed on Day 10 and the ascites fluid harvested. […]
For in vivo studies, incorporation of thymidine into deoxyribonucleic acid was determined by the method of Chae et al [Proc. Am. […] The deoxyribonucleic acid was isolated and the tritium content was determined in a toluene based scintillation fluid. The deoxyribonucleic acid concentration was determined by the diphenylamine reaction using calf thymus deoxyribonucleic acid as a standard. Uridine incorporation into ribonucleic acid was determined using 10 μCi of 5,6-^3 H-uridine (22.4 Ci/mmol). […] Leucine incorporation into protein was determined by the method of Sartorelli [Biochem. Biophys. […] Protein content was determined by the Lowry procedure using bovine serum albumin as a standard.

[2] = biological target: T1, aspartate carbamyl transferase (Mus musculus, UniProt B2RQC6); assay: In vitro aspartate carbamyl transferase activity; type: biochemical; details: 0.25 to 1.0 mM
T1 construct: ATCase domain of CAD
T1 sequence (B2RQC6 2-2225): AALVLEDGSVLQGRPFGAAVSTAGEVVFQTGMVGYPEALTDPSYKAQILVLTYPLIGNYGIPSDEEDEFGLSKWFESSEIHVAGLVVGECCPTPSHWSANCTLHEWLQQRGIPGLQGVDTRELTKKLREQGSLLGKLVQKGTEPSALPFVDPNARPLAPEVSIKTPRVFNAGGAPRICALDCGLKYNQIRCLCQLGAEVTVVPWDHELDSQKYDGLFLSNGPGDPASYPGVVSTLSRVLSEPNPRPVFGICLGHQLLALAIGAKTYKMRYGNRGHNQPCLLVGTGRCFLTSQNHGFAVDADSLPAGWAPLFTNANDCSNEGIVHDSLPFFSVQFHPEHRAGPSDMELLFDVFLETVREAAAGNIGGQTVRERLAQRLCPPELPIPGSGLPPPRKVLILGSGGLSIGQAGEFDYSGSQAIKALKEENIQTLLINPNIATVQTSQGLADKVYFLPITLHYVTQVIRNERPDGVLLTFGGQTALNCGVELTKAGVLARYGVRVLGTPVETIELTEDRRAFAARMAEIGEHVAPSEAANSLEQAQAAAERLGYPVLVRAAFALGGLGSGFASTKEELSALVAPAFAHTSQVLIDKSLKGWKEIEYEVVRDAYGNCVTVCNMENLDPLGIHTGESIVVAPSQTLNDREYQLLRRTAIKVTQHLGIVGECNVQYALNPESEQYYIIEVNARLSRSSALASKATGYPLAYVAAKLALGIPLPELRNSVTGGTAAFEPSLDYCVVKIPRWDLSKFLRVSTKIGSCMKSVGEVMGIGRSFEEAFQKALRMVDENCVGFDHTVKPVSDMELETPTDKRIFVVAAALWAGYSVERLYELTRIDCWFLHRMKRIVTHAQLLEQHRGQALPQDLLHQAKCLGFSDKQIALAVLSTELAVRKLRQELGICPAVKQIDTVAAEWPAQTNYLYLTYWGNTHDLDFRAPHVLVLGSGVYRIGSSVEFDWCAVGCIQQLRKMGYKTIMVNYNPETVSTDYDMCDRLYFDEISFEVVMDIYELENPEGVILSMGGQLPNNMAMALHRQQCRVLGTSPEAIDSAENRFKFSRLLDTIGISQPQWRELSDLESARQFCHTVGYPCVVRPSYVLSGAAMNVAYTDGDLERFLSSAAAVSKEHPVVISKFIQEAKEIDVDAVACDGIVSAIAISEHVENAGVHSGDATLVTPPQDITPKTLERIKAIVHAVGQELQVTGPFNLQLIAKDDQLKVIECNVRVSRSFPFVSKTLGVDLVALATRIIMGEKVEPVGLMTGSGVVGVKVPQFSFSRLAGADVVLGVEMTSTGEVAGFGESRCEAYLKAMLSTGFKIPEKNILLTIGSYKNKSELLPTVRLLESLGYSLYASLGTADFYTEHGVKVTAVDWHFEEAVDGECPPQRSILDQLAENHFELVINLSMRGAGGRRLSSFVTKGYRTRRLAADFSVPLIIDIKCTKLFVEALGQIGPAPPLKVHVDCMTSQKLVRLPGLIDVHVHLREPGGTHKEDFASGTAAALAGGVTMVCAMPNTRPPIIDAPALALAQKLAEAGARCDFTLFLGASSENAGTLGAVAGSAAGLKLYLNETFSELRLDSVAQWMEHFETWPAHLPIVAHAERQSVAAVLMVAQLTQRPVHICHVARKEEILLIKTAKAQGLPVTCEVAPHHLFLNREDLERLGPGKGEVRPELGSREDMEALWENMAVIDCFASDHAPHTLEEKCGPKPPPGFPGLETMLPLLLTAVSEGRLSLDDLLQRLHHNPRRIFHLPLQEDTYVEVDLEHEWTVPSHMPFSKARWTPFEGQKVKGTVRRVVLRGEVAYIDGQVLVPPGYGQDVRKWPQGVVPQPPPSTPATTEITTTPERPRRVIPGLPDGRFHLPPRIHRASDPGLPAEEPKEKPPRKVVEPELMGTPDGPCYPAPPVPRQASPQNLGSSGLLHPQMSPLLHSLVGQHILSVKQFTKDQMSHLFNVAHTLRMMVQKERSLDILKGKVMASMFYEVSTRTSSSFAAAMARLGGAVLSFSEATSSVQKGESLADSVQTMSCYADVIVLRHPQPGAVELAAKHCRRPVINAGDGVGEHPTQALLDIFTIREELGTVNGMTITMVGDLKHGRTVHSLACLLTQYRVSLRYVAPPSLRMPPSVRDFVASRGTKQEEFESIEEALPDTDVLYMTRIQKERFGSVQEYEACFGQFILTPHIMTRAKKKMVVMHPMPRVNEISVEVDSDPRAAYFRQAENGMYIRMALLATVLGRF
Experimental: as §1, with “intraperitoneally.” for “intraperitoneally. The animal was sacrificed on Day 10 and the ascites fluid harvested.”
(§2) Carbamyl phosphate synthetase activity was determined using the reaction medium of Kalman et al [Am. […] Citrulline formed from ornithine was measured at 490 nm by the method of Archibald [J. Biol. Chem., 156, 121 (1944)]. […] The ^14 CO2 generated in 15 min was trapped in 1M KOH and counted. Thymidylate synthetase activity was determined using a post-mitochondrial supernatant (9000 g×10 min) and 5 μCi of 5-^3 H-deoxyuridine monophosphate (14 Ci/mmol) according to the method of Kampf et al [ J. Med. Chem., 19, 903 (1976)]. ^14 C-Formate incorporation into purines was determined by the method of Spassova et al [Biochem. Pharmacol., 25, 923 (1976)] using 0.5 μCi of ^14 C-formic acid (52.0 mCi/mmol). […] The Rf value for xanthine monophosphate was scraped and counted. […]

[3] = biological target: T2, orotidine monophosphate decarboxylase (Mus musculus, UniProt P13439); assay: In vitro orotidine monophosphate decarboxylase activity; type: biochemical; details: 0.25 to 1.0 mM
T2 construct: OMP decarboxylase domain of UMP synthase
T2 sequence (P13439 whole entry, the tested form may be a part): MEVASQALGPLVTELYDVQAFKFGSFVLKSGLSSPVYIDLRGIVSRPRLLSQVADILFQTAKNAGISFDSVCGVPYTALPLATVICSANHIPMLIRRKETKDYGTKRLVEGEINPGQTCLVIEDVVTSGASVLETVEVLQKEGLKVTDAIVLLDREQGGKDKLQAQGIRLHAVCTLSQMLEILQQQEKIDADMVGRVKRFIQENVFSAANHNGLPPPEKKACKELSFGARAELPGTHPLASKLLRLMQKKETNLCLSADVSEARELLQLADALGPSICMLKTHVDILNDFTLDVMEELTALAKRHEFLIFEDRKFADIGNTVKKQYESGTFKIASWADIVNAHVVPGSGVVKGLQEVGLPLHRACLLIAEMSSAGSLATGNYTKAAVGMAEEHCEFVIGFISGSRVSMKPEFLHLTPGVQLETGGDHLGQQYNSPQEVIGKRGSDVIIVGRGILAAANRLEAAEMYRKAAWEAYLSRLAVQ
Experimental: as §1, with “intraperitoneally.” for “intraperitoneally. The animal was sacrificed on Day 10 and the ascites fluid harvested.”
as §2

dihydrofolate reductase = biological target: T3, dihydrofolate reductase (Mus musculus, UniProt P00375); assay: In vitro dihydrofolate reductase activity; type: biochemical; details: 0.25 to 1.0 mM
T3 sequence (P00375 1-187): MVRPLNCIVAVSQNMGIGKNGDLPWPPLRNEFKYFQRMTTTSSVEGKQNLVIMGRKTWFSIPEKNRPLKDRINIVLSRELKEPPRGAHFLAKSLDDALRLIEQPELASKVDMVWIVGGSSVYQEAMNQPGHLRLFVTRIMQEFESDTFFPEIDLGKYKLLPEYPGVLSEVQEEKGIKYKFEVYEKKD
Experimental: as §1, with “intraperitoneally.” for “intraperitoneally. The animal was sacrificed on Day 10 and the ascites fluid harvested.”
as §2

[4] = biological target: T4, ribosomal ribonucleic acid polymerase (Mus musculus, UniProt O35134+P70700); assay: In vitro ribosomal ribonucleic acid polymerase activity; type: biochemical; details: 0.25 to 1.0 mM
T4 construct: enzymes isolated from nuclei; endogenous in cells; host or cells: Ehrlich ascites tumor cell nuclei, ammonium sulfate fraction
Experimental: CF1 male mice (~30 g) were implanted with 2×10^6 Ehrlich ascites tumor cells, intraperitoneally on Day 0. Compound I was suspended by homogenation in 0.05% polysorbate.80-water and administered intraperitoneally at 10 and 20 mg/kg for 9 days to determine its effectiveness for inhibition of tumor growth. Mice were sacrificed on Day 10, and the ascites fluid was collected from the peritoneal cavity. The volume and ascrit (packed cell volume) were determined for each animal and the percent inhibition of tumor growth was calculated. For the metabolic studies, mice were treated on Days 8 and 9 with 10 mg/kg of Compound I, intraperitoneally. The animal was sacrificed on Day 10 and the ascites fluid harvested. The in vitro metabolic studies were performed at […] final concentration of Compound I.
In vitro and in vivo nuclear deoxyribonucleic acid polymerase activity was determined on isolated Ehrlich ascites cell nuclei. The incubation was that described by Sawada et al [Can. Res., 34, 3341 (1974)] except that [methyl-^3 H] deoxythymidine triphosphate (82.4 Ci/mmol) was used. The acid insoluble nucleic acid was collected on GF/F filters and counted. Nuclear ribonucleic acid polymerase activities were determined on enzymes isolated from nuclei. […] The acid insoluble ribonucleic acid was collected on nitrocellulose filters and counted.

For “{Cu[(CH3)3 N.BH2 CO2 ]2.(CH3)3 N.BH2 COOH} [Compound I]”, the “3H-Thymidine incorporation into deoxyribonucleic acid” value ([1]; 10 mg/kg/day I.P. on Days 8 and 9) was 43 ± 5 % Control, the “thymidine incorporation into deoxyribonucleic acid inhibited” value ([1]; 10 day Ehrlich ascites cells) was 57% and the “aspartate carbamyl transferase inhibition” value [2] was “not inhibited”. For the same substance, the “orotidine monophosphate decarboxylase inhibition” value [3] was “not inhibited”, the dihydrofolate reductase inhibition (dihydrofolate reductase) was “not inhibited” and the “ribosomal ribonucleic acid polymerase inhibition” value [4] was “not inhibited”.
